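The compound was tested at five concentrations on cells cultured in 96-well plates, with a 48-hour exposure period. Definition used: TGI = concentration required for complete inhibition of growth.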
Legend:
Test in all cases: NCI tumour cell line growth inhibition, 48 h
[1] = system: 786-0 renal
[2] = system: A549 NSCLC
[3] = system: ACHN renal
[4] = system: BT-549 breast
[5] = system: CAKI-1 renal
[6] = system: CCRF-CEM leukemia
[7] = system: COLO 205 colon
[8] = system: DU-145 prostate
[9] = system: EKVX NSCLC
[10] = system: HCC-2998 colon
[11] = system: HCT-116 colon
[12] = system: HCT-15 colon
[13] = system: HL-60(TB) leukemia
[14] = system: HOP-62 NSCLC
[15] = system: HOP-92 NSCLC
[16] = system: HS 578T breast
[17] = system: HT29 colon
[18] = system: IGROV1 ovarian
[19] = system: K-562 leukemia
[20] = system: KM12 colon
[21] = system: LOX IMVI melanoma
[22] = system: M14 melanoma
[23] = system: MALME-3M melanoma
[24] = system: MCF7 breast
[25] = system: MDA-MB-231 breast
[26] = system: MDA-MB-435
[27] = system: MDA-N
[28] = system: MOLT-4 leukemia
[29] = system: NCI-H226 lung
[30] = system: NCI-H23 lung
[31] = system: NCI-H460 lung
[32] = system: NCI-H522 lung
[33] = system: NCI/ADR-RES ovarian
[34] = system: OVCAR-3 ovarian
[35] = system: OVCAR-4 ovarian
[36] = system: OVCAR-5 ovarian
[37] = system: OVCAR-8 ovarian
[38] = system: PC-3 prostate
[39] = system: RPMI-8226 leukemia
[40] = system: RXF 393 renal
[41] = system: SF-268 CNS
[42] = system: SF-295 CNS
[43] = system: SF-539 CNS
[44] = system: SK-MEL-2 melanoma
[45] = system: SK-MEL-5 melanoma
[46] = system: SK-OV-3 ovarian
[47] = system: SN12C renal
[48] = system: SNB-19 CNS
[49] = system: SR leukemia
[50] = system: SW-620 colon
[51] = system: T-47D breast
[52] = system: TK-10 renal
[53] = system: U251 CNS
[54] = system: UACC-62 melanoma
[55] = system: UO-31 renal
[56] = system: A498 renal
[57] = system: SK-MEL-28 melanoma
[58] = system: SNB-75 CNS
[59] = system: UACC-257 melanoma

CCOC(=O)C1C(=O)C=C(c2cc(C)ccc2O)CC1c1cccc(Cl)c1 (stereo not given)
TGI [1]: > 100 µM | TGI [2]: 49.1 µM | TGI [3]: 51.7 µM | TGI [4]: > 100 µM | TGI [5]: > 100 µM | TGI [6]: 94.7 µM | TGI [7]: 34.9 µM | TGI [8]: > 100 µM | TGI [9]: > 100 µM | TGI [10]: 69.8 µM | TGI [11]: > 100 µM | TGI [12]: 13.2 µM | TGI [13]: 63.5 µM | TGI [14]: > 100 µM | TGI [15]: 61.5 µM | TGI [16]: 58 µM | TGI [17]: 86.7 µM | TGI [18]: 51.1 µM | TGI [19]: 53.8 µM | TGI [20]: 69 µM | TGI [21]: 57.4 µM | TGI [22]: > 100 µM | TGI [23]: 75.6 µM | TGI [24]: 74.5 µM | TGI [25]: 83.4 µM | TGI [26]: 8.23 µM | TGI [27]: 29.8 µM | TGI [28]: > 100 µM | TGI [29]: 73.5 µM | TGI [30]: 88.6 µM | TGI [31]: > 100 µM | TGI [32]: 37 µM | TGI [33]: 54.2 µM | TGI [34]: > 100 µM | TGI [35]: 56.2 µM | TGI [36]: > 100 µM | TGI [37]: > 100 µM | TGI [38]: > 100 µM | TGI [39]: 48.3 µM | TGI [40]: 54.5 µM | TGI [41]: 97.3 µM | TGI [42]: 76.3 µM | TGI [43]: 47 µM | TGI [44]: 46.7 µM | TGI [45]: 50.5 µM | TGI [46]: 79.7 µM | TGI [47]: 95.9 µM | TGI [48]: 44.2 µM | TGI [49]: 34.9 µM | TGI [50]: > 100 µM | TGI [51]: > 100 µM | TGI [52]: 57.7 µM | TGI [53]: 40.7 µM | TGI [54]: 47 µM | TGI [55]: 65.9 µM

O=C1c2[nH]c3ccccc3c2CCN2CCCCC12 (stereo not given)
TGI [1]: 56.9 µM | TGI [56]: 78.3 µM | TGI [2]: 76.3 µM | TGI [3]: 46 µM | TGI [4]: 65.8 µM | TGI [5]: > 100 µM | TGI [6]: 57.3 µM | TGI [7]: 34.9 µM | TGI [8]: > 100 µM | TGI [9]: 53.7 µM | TGI [10]: 33.2 µM | TGI [11]: 54.6 µM | TGI [12]: > 100 µM | TGI [13]: 13.3 µM | TGI [14]: > 100 µM | TGI [15]: 41.8 µM | TGI [16]: 71.8 µM | TGI [17]: > 100 µM | TGI [18]: 56 µM | TGI [19]: 95.3 µM | TGI [20]: 32.4 µM | TGI [21]: 44.9 µM | TGI [22]: 35.3 µM | TGI [23]: 46.5 µM | TGI [24]: > 100 µM | TGI [25]: 41.3 µM | TGI [26]: 31 µM | TGI [27]: 39.6 µM | TGI [28]: 56.7 µM | TGI [29]: 48.8 µM | TGI [30]: 63.7 µM | TGI [31]: > 100 µM | TGI [32]: 39.8 µM | TGI [33]: 59 µM | TGI [34]: 37.1 µM | TGI [35]: 96.5 µM | TGI [36]: 44.1 µM | TGI [37]: 65.9 µM | TGI [38]: 35.7 µM | TGI [39]: 42.6 µM | TGI [40]: 61.2 µM | TGI [41]: 78.9 µM | TGI [42]: 90.2 µM | TGI [43]: 40.2 µM | TGI [44]: 36.3 µM | TGI [57]: > 100 µM | TGI [46]: > 100 µM | TGI [47]: > 100 µM | TGI [48]: 61.7 µM | TGI [58]: 73.5 µM | TGI [50]: 65.9 µM | TGI [51]: 74.9 µM | TGI [52]: 72.4 µM | TGI [53]: 38.3 µM | TGI [59]: 39.5 µM | TGI [54]: 37 µM

c1coc(C2=Nc3cccc4cccc(c34)N2)c1
TGI [1]: > 100 µM | TGI [2]: > 100 µM | TGI [3]: 57.6 µM | TGI [4]: > 100 µM | TGI [5]: > 100 µM | TGI [6]: > 100 µM | TGI [7]: 28 µM | TGI [8]: > 100 µM | TGI [9]: > 100 µM | TGI [10]: > 100 µM | TGI [11]: 56.3 µM | TGI [12]: > 100 µM | TGI [13]: 65.4 µM | TGI [14]: > 100 µM | TGI [15]: 60.5 µM | TGI [16]: > 100 µM | TGI [17]: 57.3 µM | TGI [18]: > 100 µM | TGI [19]: > 100 µM | TGI [20]: 40.8 µM | TGI [21]: > 100 µM | TGI [22]: > 100 µM | TGI [23]: > 100 µM | TGI [24]: > 100 µM | TGI [25]: > 100 µM | TGI [26]: > 100 µM | TGI [27]: > 100 µM | TGI [28]: > 100 µM | TGI [29]: > 100 µM | TGI [30]: > 100 µM | TGI [31]: > 100 µM | TGI [32]: 23.2 µM | TGI [33]: 44.4 µM | TGI [34]: 65.4 µM | TGI [35]: 84.9 µM | TGI [37]: > 100 µM | TGI [38]: 80.8 µM | TGI [39]: > 100 µM | TGI [40]: 76.9 µM | TGI [41]: > 100 µM | TGI [42]: > 100 µM | TGI [43]: 39.3 µM | TGI [44]: > 100 µM | TGI [57]: > 100 µM | TGI [45]: > 100 µM | TGI [46]: > 100 µM | TGI [47]: > 100 µM | TGI [48]: > 100 µM | TGI [58]: > 100 µM | TGI [49]: > 100 µM | TGI [50]: > 100 µM | TGI [51]: 23 µM | TGI [52]: > 100 µM | TGI [53]: > 100 µM | TGI [59]: > 100 µM | TGI [54]: > 100 µM | TGI [55]: 64.7 µM

COc1ccc(/C=C2\Oc3cc(OC(C)=O)ccc3C2=O)cc1
TGI [1]: > 100 µM | TGI [2]: > 100 µM | TGI [3]: > 100 µM | TGI [4]: > 100 µM | TGI [5]: 86.7 µM | TGI [6]: > 100 µM | TGI [7]: > 100 µM | TGI [8]: > 100 µM | TGI [9]: > 100 µM | TGI [10]: > 100 µM | TGI [11]: > 100 µM | TGI [12]: > 100 µM | TGI [13]: > 100 µM | TGI [14]: > 100 µM | TGI [16]: > 100 µM | TGI [18]: > 100 µM | TGI [19]: > 100 µM | TGI [20]: > 100 µM | TGI [22]: > 100 µM | TGI [24]: > 100 µM | TGI [25]: > 100 µM | TGI [26]: > 100 µM | TGI [27]: > 100 µM | TGI [28]: > 100 µM | TGI [29]: > 100 µM | TGI [30]: > 100 µM | TGI [31]: > 100 µM | TGI [32]: 45.1 µM | TGI [33]: > 100 µM | TGI [34]: > 100 µM | TGI [35]: > 100 µM | TGI [37]: > 100 µM | TGI [38]: > 100 µM | TGI [39]: > 100 µM | TGI [40]: > 100 µM | TGI [41]: > 100 µM | TGI [42]: > 100 µM | TGI [43]: > 100 µM | TGI [57]: > 100 µM | TGI [45]: > 100 µM | TGI [46]: > 100 µM | TGI [47]: > 100 µM | TGI [48]: > 100 µM | TGI [58]: > 100 µM | TGI [49]: > 100 µM | TGI [50]: > 100 µM | TGI [51]: > 100 µM | TGI [52]: > 100 µM | TGI [53]: > 100 µM | TGI [59]: > 100 µM | TGI [54]: > 100 µM | TGI [55]: > 100 µM

O=C1Nc2cc(Cl)ccc2C(=O)N2CCC[C@@H]12
TGI [1]: > 100 µM | TGI [56]: > 100 µM | TGI [2]: > 100 µM | TGI [3]: > 100 µM | TGI [4]: > 100 µM | TGI [5]: > 100 µM | TGI [6]: > 100 µM | TGI [7]: > 100 µM | TGI [8]: > 100 µM | TGI [9]: > 100 µM | TGI [10]: > 100 µM | TGI [11]: > 100 µM | TGI [12]: > 100 µM | TGI [13]: > 100 µM | TGI [14]: > 100 µM | TGI [15]: > 100 µM | TGI [16]: > 100 µM | TGI [17]: > 100 µM | TGI [18]: > 100 µM | TGI [19]: > 100 µM | TGI [20]: > 100 µM | TGI [21]: > 100 µM | TGI [22]: > 100 µM | TGI [23]: > 100 µM | TGI [24]: > 100 µM | TGI [25]: > 100 µM | TGI [26]: > 100 µM | TGI [27]: > 100 µM | TGI [29]: 98.2 µM | TGI [30]: > 100 µM | TGI [31]: > 100 µM | TGI [32]: > 100 µM | TGI [33]: > 100 µM | TGI [35]: > 100 µM | TGI [36]: > 100 µM | TGI [37]: > 100 µM | TGI [38]: > 100 µM | TGI [39]: > 100 µM | TGI [40]: > 100 µM | TGI [41]: > 100 µM | TGI [42]: > 100 µM | TGI [44]: > 100 µM | TGI [57]: > 100 µM | TGI [45]: > 100 µM | TGI [46]: > 100 µM | TGI [47]: > 100 µM | TGI [48]: > 100 µM | TGI [58]: > 100 µM | TGI [50]: > 100 µM | TGI [51]: > 100 µM | TGI [52]: > 100 µM | TGI [53]: > 100 µM | TGI [59]: > 100 µM | TGI [54]: > 100 µM | TGI [55]: > 100 µM
